Laboratory results: patent publication US20160297830A1, “NOVEL COMPOUNDS USEFUL FOR THE TREATMENT OF BACTERIAL INFECTIOUS DISEASES” (GALAPAGOS NV, priority 2013, published 2016)
≈ marks a conversion by molar mass, not a printed value. Like-named read-outs stand apart in the source and are kept apart here.

Legend:
[1] = test system: S. aureus Sa2 clinical strain NCIMB 41953, MRSA; experiment: microbe, parasite or virus in culture; format: cell-based; conditions: Staphylococcus aureus, read-out: MIC Sa2
S. aureus Sa1 ATCC 13709 = experiment: microbe, parasite or virus in culture; format: cell-based; conditions: Staphylococcus aureus
[2] = test system: E. coli Ec113 efflux pump KO; experiment: microbe, parasite or virus in culture; format: cell-based; conditions: Escherichia coli, read-out: MIC Ec113 efflux pump KO
E. coli Ec1 ATCC 25922 = experiment: Antibacterial activity assay (MIC), E. coli Ec1; format: cell-based; conditions: Escherichia coli
[3] = test system: E. coli Ec50 efflux pump KO; experiment: microbe, parasite or virus in culture; format: cell-based; conditions: Escherichia coli, read-out: MIC Ec50 efflux pump KO
[4] = test system: H. influenza Hi3 ATCC 31517; experiment: organism not typed; format: cell-based; conditions: read-out: MIC Hi3
[5] = test system: H. influenza Hi47 clinical strain, Ampicillin Resistant; experiment: organism not typed; format: cell-based; conditions: read-out: MIC Hi47
[6] = test system: H. influenza Hi106 ATCC 51907; experiment: organism not typed; format: cell-based; conditions: read-out: MIC Hi106
[7] = test system: H. influenza Hi10 clinical strain; experiment: organism not typed; format: cell-based; conditions: read-out: MIC Hi10
[8] = test system: S. aureus Sa26 ATCC 25923; experiment: Antibacterial activity assay (MIC), S. aureus Sa26; format: cell-based; conditions: Staphylococcus aureus
[9] = biological target: DNA Polymerase IIIα (DnaE) from Staphylococcus aureus (Staphylococcus aureus, UniProt Q6GG04); experiment: biochemical
DNA Polymerase IIIα (DnaE) from Staphylococcus aureus, sequence (Q6GG04 1-1022): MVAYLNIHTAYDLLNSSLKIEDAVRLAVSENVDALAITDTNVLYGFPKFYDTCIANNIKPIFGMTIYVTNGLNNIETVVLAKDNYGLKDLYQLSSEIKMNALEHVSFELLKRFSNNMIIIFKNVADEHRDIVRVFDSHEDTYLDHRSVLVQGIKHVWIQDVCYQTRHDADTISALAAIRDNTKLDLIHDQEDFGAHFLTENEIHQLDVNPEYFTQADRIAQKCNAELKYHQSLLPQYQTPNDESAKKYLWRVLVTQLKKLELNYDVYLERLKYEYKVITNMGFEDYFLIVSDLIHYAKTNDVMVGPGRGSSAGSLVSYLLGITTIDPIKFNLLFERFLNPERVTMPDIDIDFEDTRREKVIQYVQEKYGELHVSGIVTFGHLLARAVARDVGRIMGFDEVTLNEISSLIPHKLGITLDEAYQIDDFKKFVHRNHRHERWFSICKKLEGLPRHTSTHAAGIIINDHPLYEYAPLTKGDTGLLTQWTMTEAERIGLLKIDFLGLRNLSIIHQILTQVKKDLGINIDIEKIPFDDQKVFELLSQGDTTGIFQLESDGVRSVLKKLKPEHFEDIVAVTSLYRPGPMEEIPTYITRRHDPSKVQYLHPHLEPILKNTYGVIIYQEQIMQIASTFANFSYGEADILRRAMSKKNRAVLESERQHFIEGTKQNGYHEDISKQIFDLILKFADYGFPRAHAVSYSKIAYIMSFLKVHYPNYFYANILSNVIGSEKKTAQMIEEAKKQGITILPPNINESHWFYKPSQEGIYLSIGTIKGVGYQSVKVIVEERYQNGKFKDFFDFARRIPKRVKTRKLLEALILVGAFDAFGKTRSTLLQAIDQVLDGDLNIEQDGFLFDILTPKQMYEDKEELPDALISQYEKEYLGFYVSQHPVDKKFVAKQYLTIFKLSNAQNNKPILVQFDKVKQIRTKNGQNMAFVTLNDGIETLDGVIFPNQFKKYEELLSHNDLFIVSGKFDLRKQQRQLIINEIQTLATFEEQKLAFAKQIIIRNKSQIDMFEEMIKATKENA

S. aureus Sa4 NCTC 6571 = experiment: Antibacterial activity assay (MIC), S. aureus Sa4; format: cell-based; conditions: Staphylococcus aureus
DNA III Polymerase E = DNA III Polymerase E (Escherichia coli, UniProt P10443); experiment: In vitro activity against DNA III Polymerase E, E. coli; format: biochemical
DNA III Polymerase E, sequence (P10443 whole entry): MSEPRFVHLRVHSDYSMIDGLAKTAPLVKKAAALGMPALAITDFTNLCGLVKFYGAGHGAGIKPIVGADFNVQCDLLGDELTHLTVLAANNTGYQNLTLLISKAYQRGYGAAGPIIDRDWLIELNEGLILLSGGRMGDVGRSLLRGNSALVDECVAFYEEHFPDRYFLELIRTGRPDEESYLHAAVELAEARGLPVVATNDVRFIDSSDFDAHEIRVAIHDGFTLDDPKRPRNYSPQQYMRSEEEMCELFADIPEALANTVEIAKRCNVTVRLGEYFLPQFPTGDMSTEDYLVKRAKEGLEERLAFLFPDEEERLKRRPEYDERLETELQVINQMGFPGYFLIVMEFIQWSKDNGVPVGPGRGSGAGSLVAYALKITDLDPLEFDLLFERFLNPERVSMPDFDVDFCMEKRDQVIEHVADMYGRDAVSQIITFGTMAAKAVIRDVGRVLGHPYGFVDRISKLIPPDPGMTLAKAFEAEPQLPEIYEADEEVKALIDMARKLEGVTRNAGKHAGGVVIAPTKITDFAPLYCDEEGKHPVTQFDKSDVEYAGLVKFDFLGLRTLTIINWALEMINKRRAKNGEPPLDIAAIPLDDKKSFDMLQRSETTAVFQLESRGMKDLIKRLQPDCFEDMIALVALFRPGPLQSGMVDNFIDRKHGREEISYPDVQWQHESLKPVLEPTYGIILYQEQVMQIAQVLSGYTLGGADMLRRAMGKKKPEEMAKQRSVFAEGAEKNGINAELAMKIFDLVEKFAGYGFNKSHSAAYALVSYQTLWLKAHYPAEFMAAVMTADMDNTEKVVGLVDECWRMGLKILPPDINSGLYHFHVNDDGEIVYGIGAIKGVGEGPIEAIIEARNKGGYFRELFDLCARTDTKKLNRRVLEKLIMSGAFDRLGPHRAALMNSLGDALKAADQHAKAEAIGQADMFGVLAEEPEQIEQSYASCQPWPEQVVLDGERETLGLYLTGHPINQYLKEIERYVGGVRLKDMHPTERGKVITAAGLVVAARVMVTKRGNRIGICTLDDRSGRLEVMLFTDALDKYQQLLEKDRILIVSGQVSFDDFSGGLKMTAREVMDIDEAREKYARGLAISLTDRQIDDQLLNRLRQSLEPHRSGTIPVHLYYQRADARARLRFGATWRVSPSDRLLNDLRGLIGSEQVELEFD
Method: A radioactive filterplate assay was used to assess inhibitory activity of compounds on DNA Polymerase IIIα. Five μL of a dilution series of compound, starting from 100 μM highest concentration, 1/5 dilution, was added to the wells of a 96 well plate. Recombinant enzyme was diluted to 0.47 μg/mL in a buffer containing 20 mM Tris pH7.5, 8 mM DTT, 10 mM MgOAc, 0.05% CHAPS and 10 μL thereof was added to the compound dilutions. The reaction was started with the addition of 10 μL substrate in the same buffer, containing activated calf thymus DNA (Sigma, D4522), dATP, dGTP, dCTP, dTTP (Invitrogen) and [α-33P]-dTTP (Perkin Elmer, NEG605H001) at a concentration of 62.5 μg/mL, 50 nM and 7.5 μCi/mL respectively. The mixture was incubated at 30° C. for 120 minutes and terminated by addition of phosphoric acid. Samples were transferred to filter plates and incorporated radioactivity was measured by the Topcount. Data were converted to percent inhibition with respect to positive and negative controls. IC50 values were calculated using Graph Prism™ software.

[10] = ATCC13709, S. aureus Sa1 ATCC 13709, sensitive strain, Mueller-Hinton Broth, 37° C., read-out: MIC Sa1
[11] = ATCC25922, E. coli Ec1 ATCC 25922, sensitive strain, read-out: MIC Ec1
[12] = ATCC25923, read-out: MIC Sa26 + 10% SH, S. aureus Sa26 + 10% SH
[13] = ATCC25923, read-out: MIC Sa26 + 50% SH, S. aureus Sa26 + 50% SH
[14] = ATCC25923, S. aureus Sa26 ATCC 25923, sensitive strain, Mueller-Hinton Broth, 37° C., read-out: MIC Sa26
[15] = DNA polymerase III, S. aureus, read-out: IC50 semiquantitative scoring, S. aureus
[16] = NCTC6571, S. aureus Sa4 NCTC 6571, sensitive strain, read-out: MIC Sa4
[17] = DNA polymerase III, E. coli, read-out: IC50 semiquantitative scoring, E. coli
[18] = ATCC25923, read-out: MIC Sa26 + 10% SH
[19] = ATCC25923, read-out: MIC Sa26 + 50% SH

COC[C@@H]1[C@@H](O)[C@@H]2[C@H]3C=C[C@@H]4[C@@H](COC)C(=O)O[C@H]([C@H](O)COC)[C@H](C)/C=C(\C)[C@@]24O[C@H]3[C@@H]1OC(=O)c1cocn1 [Compound 8, 8-O-Oxazole-4′-carbonylbranimycin]
MIC [1]: > 64 µg/mL
MIC (S. aureus Sa1 ATCC 13709; [10]): > 64 µg/mL
MIC [2]: 64 µg/mL (≈ 111 µM)
MIC (E. coli Ec1 ATCC 25922; [11]): > 64 µg/mL
MIC [3]: > 64 µg/mL
MIC [4]: > 64 µg/mL
MIC [5]: > 64 µg/mL
MIC [6]: > 64 µg/mL
MIC [7]: > 64 µg/mL
MIC [8, 12]: > 64 µg/mL
MIC [8, 13]: > 64 µg/mL
MIC [8, 14]: > 64 µg/mL
IC50 [9, 15]: 1.73 to 17.3 µM
MIC (S. aureus Sa4 NCTC 6571; [16]): > 64 µg/mL
IC50 (DNA III Polymerase E; [17]): > 17.3 µM

COC[C@@H]1[C@@H](O)[C@@H]2[C@H]3C=C[C@@H]4[C@@H](COC)C(=O)O[C@H]([C@H](O)COC)[C@H](C)/C=C(\C)[C@@]24O[C@H]3[C@@H]1OC(=O)c1ccsc1 [Compound 9, 8-O-Thiophene-3′-carbonylbranimycin]
MIC [1]: 4 µg/mL (≈ 6.75 µM)
MIC (S. aureus Sa1 ATCC 13709; [10]): 4 µg/mL (≈ 6.75 µM)
MIC [2]: 4 µg/mL (≈ 6.75 µM)
MIC (E. coli Ec1 ATCC 25922; [11]): > 64 µg/mL
MIC [3]: > 64 µg/mL
MIC [4]: > 64 µg/mL
MIC [5]: > 64 µg/mL
MIC [6]: > 64 µg/mL
MIC [7]: > 64 µg/mL
MIC [8, 12]: 2 µg/mL
MIC [8, 13]: 4 µg/mL
MIC [8, 14]: 2 µg/mL (≈ 3.37 µM)
IC50 [9, 15]: 0.00169 to 1.69 µM
MIC (S. aureus Sa4 NCTC 6571; [16]): 2 µg/mL (≈ 3.37 µM)
IC50 (DNA III Polymerase E; [17]): > 16.9 µM

COC[C@@H]1[C@@H](O)[C@@H]2[C@H]3C=C[C@@H]4[C@@H](COC)C(=O)O[C@H]([C@H](O)COC)[C@H](C)/C=C(\C)[C@@]24O[C@H]3[C@@H]1OC(=O)c1cc[nH]n1 [Compound 10, 8-O-1H-Pyrazole-3′-carbonylbranimycin]
MIC [1]: 16 µg/mL (≈ 27.7 µM)
MIC (S. aureus Sa1 ATCC 13709; [10]): 16 µg/mL (≈ 27.7 µM)
MIC [2]: 16 µg/mL (≈ 27.7 µM)
MIC (E. coli Ec1 ATCC 25922; [11]): > 64 µg/mL
MIC [3]: > 64 µg/mL
MIC [4]: > 64 µg/mL
MIC [5]: > 64 µg/mL
MIC [6]: > 64 µg/mL
MIC [7]: > 64 µg/mL
MIC [8, 12]: 16 µg/mL
MIC [8, 13]: 8 µg/mL
MIC [8, 14]: 16 µg/mL (≈ 27.7 µM)
IC50 [9]: 0.00173 to 1.73 µM
MIC (S. aureus Sa4 NCTC 6571; [16]): 16 µg/mL (≈ 27.7 µM)
IC50 (DNA III Polymerase E): > 17.3 µM

COC[C@@H]1[C@@H](O)[C@@H]2[C@H]3C=C[C@@H]4[C@@H](COC)C(=O)O[C@H]([C@H](O)COC)[C@H](C)/C=C(\C)[C@@]24O[C@H]3[C@@H]1OC(=O)c1ccoc1C [Compound 11, 8-O-2-Methylfurane-3′-carbonylbranimycin]
MIC [1]: > 64 µg/mL
MIC (S. aureus Sa1 ATCC 13709; [10]): > 64 µg/mL
MIC [2]: 8 µg/mL (≈ 13.5 µM)
MIC (E. coli Ec1 ATCC 25922; [11]): > 64 µg/mL
MIC [3]: > 64 µg/mL
MIC [4]: > 64 µg/mL
MIC [5]: > 64 µg/mL
MIC [6]: > 64 µg/mL
MIC [7]: > 64 µg/mL
MIC [8, 12]: > 64 µg/mL
MIC [8, 13]: > 64 µg/mL
MIC [8, 14]: > 64 µg/mL
IC50 [9]: 1.69 to 16.9 µM
MIC (S. aureus Sa4 NCTC 6571; [16]): > 64 µg/mL
IC50 (DNA III Polymerase E): > 16.9 µM

COC[C@@H]1[C@@H](O)[C@@H]2[C@H]3C=C[C@@H]4[C@@H](COC)C(=O)O[C@H]([C@H](O)COC)[C@H](C)/C=C(\C)[C@@]24O[C@H]3[C@@H]1OC(=O)c1cc(C)c[nH]1 [Compound 12, 8-O-4-Methyl-1H-pyrrole-2′-carbonylbranimycin]
MIC [1]: 4 µg/mL (≈ 6.78 µM)
MIC (S. aureus Sa1 ATCC 13709; ATCC13709, read-out: MIC Sa1): 8 µg/mL (≈ 13.6 µM)
MIC [2]: 2 µg/mL (≈ 3.39 µM)
MIC (E. coli Ec1 ATCC 25922; ATCC25922, read-out: MIC Ec1): > 64 µg/mL
MIC [3]: > 64 µg/mL
MIC [4]: > 64 µg/mL
MIC [5]: 64 µg/mL (≈ 109 µM)
MIC [6]: 64 µg/mL (≈ 109 µM)
MIC [7]: > 64 µg/mL
MIC ([8]; ATCC25923, read-out: MIC Sa26): 16 µg/mL (≈ 27.1 µM)
MIC [8, 18]: 8 µg/mL
MIC [8, 19]: 16 µg/mL
IC50 [9]: 0.0017 to 1.7 µM
MIC (S. aureus Sa4 NCTC 6571; NCTC6571, read-out: MIC Sa4): 8 µg/mL (≈ 13.6 µM)
IC50 (DNA III Polymerase E; [17]): > 17 µM

COC[C@@H]1[C@@H](O)[C@@H]2[C@H]3C=C[C@@H]4[C@@H](COC)C(=O)O[C@H]([C@H](O)COC)[C@H](C)/C=C(\C)[C@@]24O[C@H]3[C@@H]1OC(=O)c1ccon1 [Compound 13, 8-O-Isoxazole-3′-carbonylbranimycin]
MIC [1]: > 64 µg/mL
MIC (S. aureus Sa1 ATCC 13709; [10]): > 64 µg/mL
MIC [2]: 8 µg/mL (≈ 13.8 µM)
MIC (E. coli Ec1 ATCC 25922; [11]): > 64 µg/mL
MIC [3]: 64 µg/mL (≈ 111 µM)
MIC [4]: > 64 µg/mL
MIC [5]: 64 µg/mL (≈ 111 µM)
MIC [6]: > 64 µg/mL
MIC [7]: > 64 µg/mL
MIC [8, 12]: > 64 µg/mL
MIC [8, 13]: > 64 µg/mL
MIC [8, 14]: > 64 µg/mL
IC50 [9, 15]: 1.73 to 17.3 µM
MIC (S. aureus Sa4 NCTC 6571; [16]): 64 µg/mL (≈ 111 µM)
IC50 (DNA III Polymerase E; [17]): > 17.3 µM

COC[C@@H]1[C@@H](O)[C@@H]2[C@H]3C=C[C@@H]4[C@@H](COC)C(=O)O[C@H]([C@H](O)COC)[C@H](C)/C=C(\C)[C@@]24O[C@H]3[C@@H]1OC(=O)c1cnco1 [Compound 14, 8-O-Oxazole-5′ carbonylbranimycin]
MIC [1]: > 64 µg/mL
MIC (S. aureus Sa1 ATCC 13709; ATCC13709, read-out: MIC Sa1): > 64 µg/mL
MIC [2]: 16 µg/mL (≈ 27.7 µM)
MIC (E. coli Ec1 ATCC 25922; ATCC25922, read-out: MIC Ec1): > 64 µg/mL
MIC [3]: > 64 µg/mL
MIC [4]: > 64 µg/mL
MIC [5]: > 64 µg/mL
MIC [6]: > 64 µg/mL
MIC [7]: > 64 µg/mL
MIC ([8]; ATCC25923, read-out: MIC Sa26): > 64 µg/mL
MIC [8, 18]: > 64 µg/mL
MIC [8, 19]: > 64 µg/mL
IC50 [9]: 1.73 to 17.3 µM
MIC (S. aureus Sa4 NCTC 6571; NCTC6571, read-out: MIC Sa4): > 64 µg/mL
IC50 (DNA III Polymerase E; [17]): > 17.3 µM

COC[C@H]1[C@@H](O)[C@@H]2O[C@@]34/C(C)=C/[C@@H](C)[C@@H]([C@H](O)COC)OC(=O)[C@H](COC)[C@H]3CC[C@@H]2[C@H]4[C@@H]1O [Compound 15, 4,5-Dihydro-branimycin]
MIC [1]: > 64 µg/mL
MIC (S. aureus Sa1 ATCC 13709; ATCC13709, read-out: MIC Sa1): > 64 µg/mL
MIC [2]: 16 µg/mL (≈ 33 µM)
MIC (E. coli Ec1 ATCC 25922; ATCC25922, read-out: MIC Ec1): > 64 µg/mL
MIC [3]: > 64 µg/mL
MIC [4]: > 64 µg/mL
MIC [5]: > 64 µg/mL
MIC [6]: > 64 µg/mL
MIC [7]: > 64 µg/mL
MIC ([8]; ATCC25923, read-out: MIC Sa26): > 64 µg/mL
MIC [8, 18]: > 64 µg/mL
MIC [8, 19]: > 64 µg/mL
IC50 [9, 15]: 2.06 to 20.6 µM
MIC (S. aureus Sa4 NCTC 6571; NCTC6571, read-out: MIC Sa4): > 64 µg/mL
IC50 (DNA III Polymerase E): > 20.6 µM
